Here are results for 8 compounds from patent publication US12162896B2, “Salts and polymorphs of certain MCL-1 inhibitors” (Gilead Sciences, Inc., priority 2022, dated 2024).

Series [1] addresses MCL-1 (Homo sapiens, UniProt Q07820). The conditions noted are these: stated in background, WO 2019/222112; cited from earlier work.
Series [2] can be described thus: Hygroscopicity by dynamic vapor sorption (DVS). The class given is physicochemical. As to conditions: for hygroscopicity (DVS analysis, in words): 0% to 90% RH, about 25° C.; for water (moisture) absorbed by DVS: between 0% and 90% RH at about 25° C. As for the experimental part:
(§1) Hygroscopicity was studied using dynamic vapor sorption (DVS, TA Q5000 SA, TA Instruments, New Castle, DE or DVS, DVS Intrinsic, Surface Measurement Systems, London, UK). A sample (2-20 mg) was placed in an aluminum DVS pan and loaded on the sample side of the twin pan balance. The water sorption and desorption were studied as a function of relative humidity (RH) at 25° C. In 10% RH increments, the relative humidity was increased from 40% RH to 90% RH and then decreased back to 0%, followed by repeating the full cycle from 0% RH up to 90% RH and back to 0% RH. […] Data analysis was performed using Universal Analysis 2000 Version 4.5A (TA Instruments, New Castle, DE) for TA DVS runs and Microsoft Excel for SMS DVS runs.

Series [3] can be described thus: XRPD analysis of the sample post DVS (form change). The class given is physicochemical. The conditions noted are these: sample after DVS cycles at 25° C. How it is done:
X-ray powder diffraction (XRPD) analysis was conducted on a diffractometer (PANalytical XPERT-PRO, PANalytical B. V., Almelo, Netherlands) using copper radiation (Cu Kα, λ=1.541874). Samples were spread evenly on a zero-background sample plate. The generator was operated at a voltage of 45 kV and amperage of 40 mA. Slits were Soller 0.02 rad, antiscatter 1.0°, and divergence. Scans were performed from 2 to 40° 2−θ with a 0.0167 step size. Data analysis was performed using X'Pert Data Viewer V1.2d (PANalytical B.V., Almelo, Netherlands).
as §1

Series [4] in a line: Competitive slurries of polymorph forms in EtOH. The class given is physicochemical. As to conditions: for outcome of competitive slurry with Form I: in EtOH.

Counter-ions that a name gives are not always drawn.

MCL-1, sequence (Q07820 whole entry, species assumed): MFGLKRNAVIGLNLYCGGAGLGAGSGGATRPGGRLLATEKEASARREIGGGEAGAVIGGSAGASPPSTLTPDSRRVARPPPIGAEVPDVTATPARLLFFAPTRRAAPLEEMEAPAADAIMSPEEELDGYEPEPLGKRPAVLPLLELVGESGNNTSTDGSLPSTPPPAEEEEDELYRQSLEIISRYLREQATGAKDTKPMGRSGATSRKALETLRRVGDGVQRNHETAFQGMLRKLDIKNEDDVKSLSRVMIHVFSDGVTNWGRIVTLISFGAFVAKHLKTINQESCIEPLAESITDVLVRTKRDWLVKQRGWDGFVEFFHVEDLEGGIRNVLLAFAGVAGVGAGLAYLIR

With `COc1nn(C)cc1C(=O)N[S@@]1(=O)=NC(=O)c2ccc3c(c2)N(C[C@@H]2CC[C@H]2[C@@H](OC)/C=C/C[C@H](C)C1)C[C@@]1(CCCc2cc(Cl)ccc21)CO3` [Compound 1], in series [1], the “MCL-1 inhibition (in words)” value is listed as “effective MCL-1 inhibitor”.

Turning to `COc1nn(C)cc1C(=O)N[S@@]1(=O)=NC(=O)c2ccc3c(c2)N(C[C@@H]2CC[C@H]2[C@@H](OC)/C=C/C[C@H](C)C1)C[C@@]1(CCCc2cc(Cl)ccc21)CO3` [DEA Salt Form 1], in series [2], the “hygroscopicity (DVS analysis, in words)” value is listed as “moderately hygroscopic” and the “water (moisture) absorbed by DVS” value is reported as “about 5.5 wt %”. In addition, the “form change by XRPD post DVS” value in series [3] is given as “no form change”.

Turning to `COc1nn(C)cc1C(=O)N[S@@]1(=O)=NC(=O)c2ccc3c(c2)N(C[C@@H]2CC[C@H]2[C@@H](OC)/C=C/C[C@H](C)C1)C[C@@]1(CCCc2cc(Cl)ccc21)CO3` [Form III], in series [2], the “hygroscopicity (DVS analysis, in words)” value was “moderately hygroscopic” and the “water (moisture) absorbed by DVS” value is reported as “up to 5 wt %”. Also, in series [3], the “form change by XRPD post DVS” value is “no form change”. Also, the “outcome of competitive slurry with Form I” value (“outcome” for short) in series [4] is on record as “full conversion to Form I”.

For `COc1nn(C)cc1C(=O)N[S@@]1(=O)=NC(=O)c2ccc3c(c2)N(C[C@@H]2CC[C@H]2[C@@H](OC)/C=C/C[C@H](C)C1)C[C@@]1(CCCc2cc(Cl)ccc21)CO3` [Form II], in series [2], the “hygroscopicity (DVS analysis, in words)” value is “slightly hygroscopic” and the “water (moisture) absorbed by DVS” value was “up to 1.1 wt %”. For the same compound, the “form change by XRPD post DVS” value in series [3] was “no form change”. Moreover, the “outcome” value in series [4] is “full conversion to Form I”.

Turning to `COc1nn(C)cc1C(=O)N[S@@]1(=O)=NC(=O)c2ccc3c(c2)N(C[C@@H]2CC[C@H]2[C@@H](OC)/C=C/C[C@H](C)C1)C[C@@]1(CCCc2cc(Cl)ccc21)CO3` [Form IV], in series [4], the “outcome” value is reported as “full conversion to Form I”.

Regarding `COc1nn(C)cc1C(=O)N[S@@]1(=O)=NC(=O)c2ccc3c(c2)N(C[C@@H]2CC[C@H]2[C@@H](OC)/C=C/C[C@H](C)C1)C[C@@]1(CCCc2cc(Cl)ccc21)CO3` [Form I], in series [2], the “hygroscopicity (DVS analysis, in words)” value is “slightly hygroscopic” and the “water (moisture) absorbed by DVS” value was “about 1.4 wt %”. Further, the “form change by XRPD post DVS” value in series [3] is listed as “no form change”. Besides, in series [4] (competitive slurries in EtOH), the “relative stability versus other unsolvated/desolvated forms” value is given as “higher stability”.

`COc1nn(C)cc1C(=O)N[S@@]1(=O)=NC(=O)c2ccc3c(c2)N(C[C@@H]2CC[C@H]2[C@@H](OC)/C=C/C[C@H](C)C1)C[C@@]1(CCCc2cc(Cl)ccc21)CO3` [K Salt Form 1]: in series [2], the “hygroscopicity (DVS analysis, in words)” value is “moderately hygroscopic” and the “water (moisture) absorbed by DVS” value was “about 11 wt %”. Also, the “moisture rapidly absorbed at ambient conditions” value in series [2] (ambient conditions) is listed as 4-6 wt %. Further, the “form change by XRPD post DVS” value in series [3] is reported as “no form change”.

For `COc1nn(C)cc1C(=O)N[S@@]1(=O)=NC(=O)c2ccc3c(c2)N(C[C@@H]2CC[C@H]2[C@@H](OC)/C=C/C[C@H](C)C1)C[C@@]1(CCCc2cc(Cl)ccc21)CO3` [Na salt Form 1], in series [2], the “hygroscopicity (DVS analysis, in words)” value was “moderately hygroscopic” and the “water (moisture) absorbed by DVS” value is recorded as “about 7.5 wt %”. The “form change by XRPD post DVS” value in series [3] is on record as “no form change”.
